Assays:
[1] = target: Recombinant KRAS-G12V (SEQ ID NO: 3) (Homo sapiens, UniProt P01116, G12V); experiment: SOS-catalyzed guanine nucleotide exchange (GNE) assay, KRAS-G12V
Method: (§1) Specifically, the SOS-catalyzed nucleotide exchange assay utilizes a preformed time-resolved fluorescence resonance energy transfer (TR-FRET) complex containing a specific biotinylated RAS protein (KRAS-G12C/V/D, HRAS, NRAS; described above) with BODIPY-GDP, and Terbium-streptavidin. Test compounds are preincubated with this complex for 60 minutes.
(§2) To assemble the preformed TR-FRET complexes, each biotinylated RAS protein is diluted to 2 μM in an EDTA Buffer (20 mM HEPES, 50 mM sodium chloride, 10 mM EDTA, and 0.01% Tween) and incubated at room temperature for one hour. This mixture is then further diluted to 90 nM in an Assay Buffer (20 mM HEPES, 150 mM sodium chloride, 10 mM magnesium chloride, and 0.005% Tween) containing 15 nM of Terbium-Streptavidin (Invitrogen, catalog #PV3577) and 900 nM of BODIPY-GDP (Invitrogen, catalog #G22360) and incubated at room temperature for six hours. It should be noted that this preformed TR-FRET complex for each of the RAS proteins was made ahead of time, aliquoted and stored at −80° C. until the day of the experiment.
(§3) Once titrations are made, 10 nL of the diluted compounds is acoustically dispensed into a 384-well assay plate (Corning, catalog #3820) using an Echo 550 (Labcyte). Each well of the assay plate subsequently receives 3 μL of a specific 3× RAS preformed TR-FRET complex and 3 μL of Assay Buffer and is incubated at room temperature for 60 minutes (preincubation time). […] The final reaction in each well of 9 μL consists of 3 mM GTP, and the specific RAS and SOS proteins in the following concentrations: KRAS-G12C/SOS=3 nM/40 nM, KRAS-G12D/SOS=1 nM/40 nM, KRAS-G12V/SOS=1.25 nM/160 nM, HRAS/SOS=1.25 nM/40 nM, and NRAS/SOS=1.25 nM/40 nM.
(§4) The TR-FRET signal is measured on an Envision (PerkinElmer) plate reader: Excitation filter=340 nm; emission 1=495 nm; emission 2=520 nm; dichroic mirror=D400/D505; delay time=100 ms. The signal of each well is determined as the ratio of the emission at 520 nm to that at 495 nm. […] The apparent effect as a function of compound concentration is fit to a four-parameter logistic equation to calculate IC50 values using Spotfire software.

[2] = test system: NCI-H358 cells containing homozygous KRAS-G12C activating mutation (p-ERK); settings: Homo sapiens, NCI-H358, 2 h, read-out: G12C H358 IC50 (nM)
Method: Procedure for Cellular Phospho-ERK Assay, G12C
NCI-H358 cells (ATCC® CRL-5807™), containing homozygous KRAS-G12C activating mutation, were cultured in T150 flask in growth medium (RPMI medium 1640-GlutaMAX™—I (ThermoFisher Scientific 61870) containing 10% fetal bovine serum (ThermoFisher Scientific 10091148)). The cells were harvested in growth medium after TrypLE (ThermoFisher scientific 12604021) digestion and were seeded in a 384-well collagen coated cell culture plate (Corning 356702) at a density of 15,000 cells/well, and incubated at 37° C., 5% CO2 overnight. […] RPMI medium 1640-GlutaMAX™—I was added to the intermediate plate and the contents of the intermediate plate were then transferred to the 384-well collagen coated cell culture plate, which was incubated at 37° C., 5% CO2 for 2 hours. After removal of medium from the collagen coated cell culture plate, cells were lysed in lysis buffer from Alpha SureFire® Ultra™ Multiplex p-ERK and total ERK assay kit (PerkinElmer MPSU-PTERK) containing Halt™ Protease and Phosphatase inhibitor cocktail (ThermoFisher Scientific 78446) at room temperature with constant shaking at 300 rpm for 30 minutes. The cell lysates were then transferred to an OptiPlate-384 plate (PerkinElmer 6005620), and the phosphorylation of ERK (p-ERK) and total ERK levels were detected by Alpha SureFire® Ultra™ Multiplex p-ERK kit and total ERK assay kit (PerkinElmer MPSU-PTERK) following the manufacturer's protocol. Assay plates were read on an EnVision Multimode Plate Reader (PerkinElmer), and the ratio of p-ERK vs. total ERK in each well was used as the final readout. Dose response curves were analyzed using a 4-parameter logistic model to calculate IC50 values using Spotfire software.

[3] = test system: AsPC-1 cells containing homozygous KRAS-G12D activating mutation (p-ERK); settings: Homo sapiens, ASPC1, 2 h, read-out: KRAS G12D ASPC-1 IC50 (nM)
Method: Procedure for Cellular Phospho-ERK Assay, G12D
AsPC-1 cells (ATCC® CRL-1682™), containing homozygous KRAS-G12D activating mutation, were cultured in T150 flask in growth medium (RPMI medium 1640-GlutaMAX™—I (ThermoFisher Scientific 61870) containing 10% fetal bovine serum (ThermoFisher Scientific 10091148)). The cells were harvested in growth medium after TrypLE (ThermoFisher scientific 12604021) digestion and were seeded in a 384-well collagen coated cell culture plate (Corning 356702) at a density of 15,000 cells/well, and incubated at 37° C., 5% CO2 overnight. […] RPMI medium 1640-GlutaMAX™—I was added to the intermediate plate and the contents of the intermediate plate were then transferred to the 384-well collagen coated cell culture plate, which was incubated at 37° C., 5% CO2 for 2 hours. After removal of medium from the collagen coated cell culture plate, cells were lysed in lysis buffer from Alpha SureFire® Ultra™ Multiplex p-ERK and total ERK assay kit (PerkinElmer MPSU-PTERK) containing Halt™ Protease and Phosphatase inhibitor cocktail (ThermoFisher Scientific 78446) at room temperature with constant shaking at 300 rpm for 30 minutes. The cell lysates were then transferred to an OptiPlate-384 plate (PerkinElmer 6005620), and the phosphorylation of ERK (p-ERK) and total ERK levels were detected by Alpha SureFire® Ultra™ Multiplex p-ERK kit and total ERK assay kit (PerkinElmer MPSU-PTERK) following the manufacturer's protocol. Assay plates were read on a EnVision Multimode Plate Reader (PerkinElmer), and the ratio of p-ERK vs. total ERK in each well was used as the final readout. Dose response curves were analyzed using a 4-parameter logistic model to calculate IC50 values using Spotfire software.

[4] = target: G13D (Homo sapiens, UniProt P01116, G13D); experiment: Guanine nucleotide exchange (GNE) assay, G13D; format: biochemical
G13D, sequence (P01116 1-188 isoform P01116-2 G13D): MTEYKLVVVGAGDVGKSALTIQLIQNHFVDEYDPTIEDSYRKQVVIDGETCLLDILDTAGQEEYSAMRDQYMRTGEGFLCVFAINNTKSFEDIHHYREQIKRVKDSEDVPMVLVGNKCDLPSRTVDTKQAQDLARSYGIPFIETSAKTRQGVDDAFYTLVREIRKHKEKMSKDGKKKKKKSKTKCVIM
Method: as §4

[5] = target: Recombinant KRAS-G12D (SEQ ID NO: 2) (Homo sapiens, UniProt P01116, G12D); experiment: SOS-catalyzed guanine nucleotide exchange (GNE) assay, KRAS-G12D
Recombinant KRAS-G12D (SEQ ID NO: 2), sequence (P01116 with tags, fused parts or gaps isoform P01116-2 G12D): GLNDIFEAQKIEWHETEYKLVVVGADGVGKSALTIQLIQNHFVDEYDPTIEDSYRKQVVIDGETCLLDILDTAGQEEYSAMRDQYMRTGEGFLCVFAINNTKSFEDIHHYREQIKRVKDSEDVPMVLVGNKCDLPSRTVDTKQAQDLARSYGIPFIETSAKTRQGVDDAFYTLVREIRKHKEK
Method: as §1, §2, §3, §4

Recombinant KRAS-G12V (SEQ ID NO: 3), sequence (P01116 with tags, fused parts or gaps isoform P01116-2 G12V): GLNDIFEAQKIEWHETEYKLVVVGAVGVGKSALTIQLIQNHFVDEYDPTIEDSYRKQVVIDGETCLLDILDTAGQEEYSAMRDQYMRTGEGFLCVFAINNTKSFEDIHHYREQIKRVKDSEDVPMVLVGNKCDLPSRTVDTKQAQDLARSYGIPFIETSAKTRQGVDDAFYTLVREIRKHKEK

Row | SMILES | IC50 [1] [nM] | IC50 [2] [nM] | IC50 [3] [nM] | IC50 [4] [nM] | IC50 [5] [nM]
1 | Cc1cc(N)nc(-c2c(Cl)cc3c(N4CCCC(C)(O)C4)nc(OC[C@@]45CCCN4C[C@H](F)C5)nc3c2F)c1C(F)(F)F (single isomer, unassigned) [Ex-26] | 1550 | 7730 | 3920 | 711 | 2010
2 | CC1(O)CCCCN(c2nc(OC[C@@]34CCCN3C[C@H](F)C4)nc3c(F)c(-c4cc(O)cc5cccc(Cl)c45)c(F)cc23)C1 (single isomer, unassigned) [Ex-36] | 300 | 3580 | 1860 | 142 | 398
3 | Oc1cc(-c2c(F)cc3c(N4CCCC(O)(C(F)(F)F)C4)nc(OC[C@@]45CCCN4C[C@H](F)C5)nc3c2F)c2c(Cl)cccc2c1 (single isomer, unassigned) [Ex-38] | 598 | 2170 | 6860 | 777 | 857
4 | CN(C)CC1(COc2nc(N3CCCC(C)(O)C3)c3cc(F)c(-c4cc(O)ccc4OC(F)(F)F)c(F)c3n2)CC1 (centres unmarked) [Ex-9, 1-(2-((1-((dimethylamino)methyl)cyclopropyl)methoxy)-6,8-difluoro-7-(5-hydroxy-2-(trifluoromethoxy)phenyl)quinazolin-4-yl)-3-methylpiperidin-3-ol] | 381 | 4210 | 1880 | 221 | 315
5 | C#Cc1cccc2cc(O)cc(-c3cnc4c(N5CCC[C@@](C)(O)C5)nc(OCC5(CN(C)C)CC5)nc4c3)c12 [Ex-19, (R)-1-(2-((1-((dimethylamino)methyl)cyclopropyl)methoxy)-7-(8-ethynyl-3-hydroxynaphthalen-1-yl)pyrido[3,2-d]pyrimidine-4-yl)-3-methylpiperidin-3-ol] | 47 | – | 3340 | 129 | 91
6 | CN(C)CC1(COc2nc(N3CCC[C@@](C)(O)C3)c3cnc(-c4cc(O)cc5cccc(Cl)c45)c(F)c3n2)CC1 [Ex-20, (R)-1-(7-(8-chloro-3-hydroxynaphthalen-1-yl)-2-((1-((dimethylamino)methyl)cyclopropyl)methoxy)-8-fluoropyrido[4,3-d]pyrimidin-4-yl)-3-methylpiperidin-3-ol] | 6 | – | 1180 | 6 | 4
7 | C#Cc1cccc2cc(O)cc(-c3ncc4c(N5CCC[C@@](C)(O)C5)nc(OCC5(CN(C)C)CC5)nc4c3F)c12 [Ex-21, (R)-1-(2-((1-((dimethylamino)methyl)cyclopropyl)methoxy)-7-(8-ethynyl-3-hydroxynaphthalen-1-yl)-8-fluoropyrido[4,3-d]pyrimidin-4-yl)-3-methylpiperidin-3-ol] | 1 | – | 329 | 1 | 1
8 | C#Cc1cccc2cc(O)cc(-c3ncc4c(N5CCC[C@@](C)(O)C5)nc(OCC56CCCN5CCC6)nc4c3F)c12 [Ex-22, (R)-1-(7-(8-ethyny1-3-hydroxynaphthalen-1-yl)-8-fluoro-2-((tetrahydro-1H-pyrrolizin-7a(5H)-yl)methoxy)pyrido[4,3-d]pyrimidin-4-yl)-3-methylpiperidin-3-ol] | 2 | 305 | 1160 | 1 | 1
9 | C#Cc1cccc2cc(O)cc(-c3ncc4c(N5CCC[C@@](C)(O)C5)nc(OC[C@@]56CCCN5C[C@H](F)C6)nc4c3F)c12 [Ex-23, (R)-1-(7-(8-ethynyl-3-hydroxynaphthalen-1-yl)-8-fluoro-2-(((2R,7aS)-2-fluorotetrahydro-1H-pyrrolizin-7a(5H)-yl)methoxy)pyrido[4,3-d]pyrimidin-4-yl)-3-methylpiperidin-3-ol] | 1 | 14 | 65 | 2 | 1
10 | C#Cc1cccc2cc(O)cc(-c3ncc4c(N5CCC[C@@](C)(O)C5)nc(OC[C@]5(CN(C)C)CC5(F)F)nc4c3F)c12 [Ex-24, (R)-1-(2-(((R)-1-((dimethylamino)meth-yl)-2,2-difluorocyclopropyl)methoxy)-7-(8-ethynyl-3-hydroxynaphthalen-1-yl)-8-fluoropyrido[4,3-d]pyrimidin-4-yl)-3-methylpiperidin-3-ol] | 1 | 2 | 20 | 1 | 1
11 | CC1(O)CCCN(c2nc(OC[C@@]34CCCN3C[C@H](F)C4)nc3c(F)c(-c4cc(O)cc5cccc(Cl)c45)c(F)cc23)C1 (stereo partly drawn) [Ex-29, 1-(7-(8-chloro-3-hydroxynaphthalen-1-yl)-6,8-difluoro-2-(((2R,7aS)-2-fluorotetrahydro-1H-pyrrolizin-7a(5H)-yl)methoxy)quinazolin-4-yl)-3-methylpiperidin-3-ol] | 17 | > 30000 | 900 | 13 | 15
12 | CC1(O)CN(c2nc(OC[C@@]34CCCN3C[C@H](F)C4)nc3c(F)c(-c4cc(O)cc5cccc(Cl)c45)c(F)cc23)CCC1(F)F (stereo partly drawn) [Ex-31, 1-(7-(8-chloro-3-hydroxynaphthalen-1-yl)-6,8-difluoro-2-(((2R,7aS)-2-fluorotetrahydro-1H-pyrrolizin-7a(5H)-yl)methoxy)quinazolin-4-yl)-4,4-difluoro-3-methylpiperidin-3-ol] | 358 | 468 | 1730 | 189 | 984
13 | CC1(O)CN(c2nc(OC[C@@]34CCCN3C[C@H](F)C4)nc3c(F)c(-c4cc(O)cc5cccc(Cl)c45)c(F)cc23)CCC1F (stereo partly drawn) [Ex-32, 1-(7-(8-chloro-3-hydroxynaphthalen-1-yl)-6,8-difluoro-2-(((2R,7aS)-2-fluorotetrahydro-1H-pyrrolizin-7a(5H)-yl)methoxy)quinazolin-4-yl)-4-fluoro-3-methylpiperidin-3-ol] | 40 | 118 | 261 | 16 | 59
14 | Oc1cc(-c2c(F)cc3c(N4CCCCC(O)C4)nc(OC[C@@]45CCCN4C[C@H](F)C5)nc3c2F)c2c(Cl)cccc2c1 (stereo partly drawn) [Ex-34, 1-(7-(8-chloro-3-hydroxynaphthalen-1-yl)-6,8-difluoro-2-(((2R,7aS)-2-fluorotetrahydro-1H-pyrrolizin-7a(5H)-yl)methoxy)quinazolin-4-yl)azepan-3-ol] | 589 | 3620 | 6300 | 441 | 285
15 | Cc1cc2[nH]ncc2c(-c2c(F)cc3c(N4CCC[C@H](O)CC4)nc(OC[C@@]45CCCN4C[C@H](F)C5)nc3c2F)c1C(F)(F)F [Ex-40, (4S)-1-(6,8-difluoro-2-(((2R,7aS)-2-fluorotetrahydro-1H-pyrrolizin-7a(5H)-yl)methoxy)-7-(6-methyl-5-(trifluoromethyl)-1H-indazol-4-yl)quinazolin-4-yl)azepan-4-ol] | 470 | 981 | 1330 | 931 | 173
16 | C#Cc1cccc2cc(O)cc(-c3c(F)cc4c(N5CCCC(O)(C(F)F)C5)nc(OC[C@@]56CCCN5C[C@H](F)C6)nc4c3F)c12 (stereo partly drawn) [Ex-43, 3-(difluoromethyl)-1-(7-(8-ethynyl-3-hydroxynaphthalen-1-yl)-6,8-difluoro-2-(((2R,7aS)-2-fluorotetrahydro-1H-pyrrolizin-7a(5H)-yl)methoxy)quinazolin-4-yl)piperidin-3-ol] | 10 | 58 | 215 | 8 | 13
17 | C#Cc1c(F)ccc2cccc(-c3c(F)cc4c(N5CCC[C@@](C)(O)C5)nc(OC[C@@]56CCCN5[C@H](COC(=O)N(C)C)CC6)nc4c3F)c12 [Ex-45, ((3S,7aS)-7a-(((7-(8-ethynyl-7-fluoronaphthalen-1-yl)-6,8-difluoro-4-((R)-3-hydroxy-3-methylpiperidin-1-yl)quinazolin-2-yl)oxy)methyl)hexahydro-1H-pyrrolizin-3-yl)methyl dimethylcarbamate] | 12 | 331 | 379 | 14 | 23
18 | C#Cc1c(F)ccc2cccc(-c3c(F)cc4c(N5CCC[C@@](C)(O)C5)nc(OC[C@@]56CCCN5C[C@H](F)C6)nc4c3F)c12 [Ex-47, (3R)-1-(7-(8-ethynyl-7-fluoronaphthalen-1-yl)-6,8-difluoro-2-(((2R,7aS)-2-fluorotetrahydro-1H-pyrrolizin-7a(5H)-yl)methoxy)quinazolin-4-yl)-3-methylpiperidin-3-ol] | 390 | 979 | 2070 | 173 | 239
19 | C#Cc1cccc2cc(O)cc(-c3c(F)cc4c(N5CCCC(O)(CO)C5)nc(OC[C@@]56CCCN5C[C@H](F)C6)nc4c3F)c12 (stereo partly drawn) [Ex-48, 1-(7-(8-ethynyl-3-hy-droxynaphthalen-1-yl)-6,8-difluoro-2-(((2R,7aS)-2-fluorotetrahydro-1H-pyrrolizin-7a(5H)-yl)methoxy)quinazolin-4-yl)-3-(hydroxymethyl)piperidin-3-ol] | 5 | 180 | 376 | 7 | 13

Source: patent publication US20260200925A1, “SMALL MOLECULE INHIBITORS OF KRAS MUTATED PROTEINS” (MERCK SHARP & DOHME LLC, priority 2021, published 2026)
